# Measurements from patent EP2558096B1, “COMBINATION OF HYPOXIA-INDUCIBLE FACTOR-1 INHIBITORS AND TOLL-LIKE RECEPTOR-3 AGONISTS FOR TREATING SOLID TUMORS” (Università degli Studi di Roma "La Sapienza", priority 2010, dated 2011).
# Read-outs that look alike come from different tables or passages of the source. *1 amine or outer side, *2 acyl side, *3 side chain or, on linkers, in order; H or OH if unused. Where a SMILES comes first, the peptide text is derived from it. Bridges are numbered along the chain shown (N, C = ends). Roman numbers before positions name the chains, in order. [ ]: non-standard residue; d: D form. The star is where a group is joined. Actinocin(9to1) = Cc1c2oc3c(C)ccc(C(=O)[*:1])c3nc-2c(C(=O)[*:2])c(N)c1=O; NMeV = CN[C@H](C(=O)O)C(C)C; Cbz = O=C(OCc1ccccc1)*; Sar = CNCC(=O)O
# Tested on: HIF-1α
# Experiment: Western blot of HIF-1α protein in PC3 cells (whole cell and nuclear extracts)
# Assay type: cell-based, human
# Protocol: LNCaP and PC3 prostate cancer cells were purchased from ATCC and were grown in DME medium supplemented with 2 mM L-glutamine, 100 IU/ml penicillin-streptomycin and 10% FCS (Sigma-Aldrich, St Louis, MO). For all the experiments, prostate cancer cell lines were serum starved for 18 h and then stimulated with poly(I:C) (InvivoGen, San Diego) in FCS-free medium. Human Umbilical Vein Endothelial Cells (HUVEC) were maintained in EGM®-2 complete medium (Lonza, Basel, Switzerland). Actinomycin D, cycloheximide and CoCl2 were from Sigma. MG-132 was from Calbiochem-Merk (Damstadt, Germany).
# Cell lysates were prepared in cell lysis buffer (Cell Signaling, Danvers, MA). Equal amounts of proteins (40 µg) were subjected to SDS-polyacrylamide gel electrophoresis and transferred onto a nitrocellulose membrane saturated with 5% non-fat dry milk in Tris-buffered saline with 0.1% Tween-20 (T-TBS). Membranes were incubated with primary antibody and subsequently with horseradish peroxidase-conjugated (HRP) secondary antibody for 1 h at room temperature. Membranes were washed with T-TBS and developed using the chemiluminescence system (ECL; Amersham Bioscience, Piscataway, NJ). Antibody anti-HIF-1α was from BD biosciences (San Diego, CA), cleaved caspase-3 (Asp175) from Cell Signalling (Danvers, MA) and anti-β actin from Sigma. Secondary antibodies were HRP-conjugated goat anti-mouse or anti-rabbit (Bio-Rad, Hercules, CA). To perform Western blot of nuclear extracts, cells were washed in ice-cold PBS, scraped and collected in buffer A (10 mM Tris, pH 7.8, 1.5 Mm MgC12, and 10 mM KCl), and kept on ice for 10 min. before Dounce homogenization. Nuclei were then pelleted at 1000 g for 7 min. at 4°C, re-suspended in 150 µl ice-cold lysis buffer and incubated for 30 min. on ice in the presence of proteases inhibitor cocktail (Sigma) then stored at -80°C. Protein concentration was determined by the micro bicinchoninic acid (BCA) method (Pierce, Rockford, IL).
# One day after plating (1 x 10^5 cells/ml), cells were transiently transfected with 1 µg of a plasmid encoding 1.3 isoform of hif-1α [6] or relative control plasmid (pcDNA3) or with 1 µg of a plasmid containing an interfering sequence targeting hif-1α (int.HIF-1α) or the relative control (int. scramble) previously described. Cells were transfected for 5 h with lipofectamine LTX/plus (Invitrogen, Carlsbad, CA) according to the manufacturer's protocol. Challenge with poly(I:C) was performed 18 h later.
# To obtain stably transfected PC3 cells with non-functional TLR3, cells were transfected with 1 µg TLR3-dominant negative plasmid (TLR3-DN) (pZERO-hTLR3, Invivogen) or with 1 µg plasmid containing only the resistance to puromycin (pPURO), using lipofectamine LTX/plus as described above. 48 h later, the cells were trypsinized, and seeded at different dilutions onto 100-mm plates in complete DMEM supplemented with 2 µg/ml puromycin (Invivogen). After incubation at 37°C for 2 to 3 weeks, individual colonies were isolated using sterile cloning rings, trypsinized and plated onto 12-well plates. The clones obtained were expanded and maintained in DMEM supplemented with 2 µg/ml puromycin.
structure (smiles),measurement,setting,value
CC(C)C[C@@H](C=O)NC(=O)[C@H](CC(C)C)NC(=O)[C@H](CC(C)C)NC(=O)OCc1ccccc1 [MG-132] (Cbz-Leu-Leu-Leu-aldehyde),level of HIF-1α in the absence of poly(I:C),"PC3 cells, 5 µg/ml MG-132, 3 h, Fig. 2B lower",induced an increase
same,HIF-1α compared to CoCl2 alone,"PC3 cells, CoCl2 combined with MG-132, Fig. 2B lower",greater increment
"Cc1c2oc3c(C)ccc(C(=O)N[C@@H]4C(=O)N[C@H](C(C)C)C(=O)N5CCC[C@H]5C(=O)N(C)CC(=O)N(C)[C@@H](C(C)C)C(=O)O[C@@H]4C)c3nc-2c(C(=O)N[C@@H]2C(=O)N[C@H](C(C)C)C(=O)N3CCC[C@H]3C(=O)N(C)CC(=O)N(C)[C@@H](C(C)C)C(=O)O[C@@H]2C)c(N)c1=O [Act D, actinomycin D] (I: T[dV]P[Sar][NMeV] / II: T[dV]P[Sar][NMeV]; ester I:1-I:C, II:1-II:C; linker I:N-II:N via Actinocin(9to1))",effect on HIF-1α protein accumulation in cells treated with CoCl2,"PC3 cells, 100 µM CoCl2 3 h, Fig. 2B upper",did not inhibit
same,effect on poly(I:C)-dependent HIF-1α protein induction,"PC3 cells, poly(I:C) 5 µg/ml about 6 h, inhibitor for 15 min (CHX 100 µg/ml, Act D 2 µg/ml), Fig. 2B upper",completely abolished
"C[C@@H]1C[C@@H]([C@H](O)CC2CC(=O)NC(=O)C2)C(=O)[C@@H](C)C1 [CHX, cycloheximide]",effect on HIF-1α increase by CoCl2 combined with MG-132,,not significantly inhibited
same,effect on HIF-1α increase by poly(I:C) in MG-132-treated cells,,reverted the increase to the level of MG-132 alone
same,effect on HIF-1α protein accumulation in cells treated with CoCl2,,did not inhibit
same,effect on poly(I:C)-dependent HIF-1α protein induction,,completely abolished
